Test results: PMC12203311, “Design, synthesis, in silico and in vitro evaluation of pyrrole–indole hybrids as dual tubulin and aromatase inhibitors with potent anticancer activities” (RSC Advances, 2025)

Tests used:
[1] = tested on: HL-60 (TB); test: NCI60 five-dose screen; type: cell-based; details: Homo sapiens, leukemia
[2] = tested on: NCI-H226; test: NCI60 five-dose screen; type: cell-based; details: Homo sapiens, NCI-H226, NSC lung cancer
[3] = tested on: MDA-MB-435; test: NCI60 five-dose screen; type: cell-based, human; details: Homo sapiens
[4] = tested on: M14; test: NCI60 five-dose screen; type: cell-based; details: Homo sapiens, M14, melanoma
[5] = tested on: NCI-H460; test: NCI60 five-dose screen; type: cell-based; details: Homo sapiens, NCI-H460, NSC lung cancer
[6] = tested on: UACC-257; test: NCI60 five-dose screen; type: cell-based; details: Homo sapiens, UACC-257, melanoma
[7] = tested on: CAKI-1; test: NCI60 five-dose screen; type: cell-based; details: Homo sapiens, CAKI-1, renal cancer
[8] = tested on: SK-MEL-2; test: NCI60 five-dose screen; type: cell-based; details: Homo sapiens, SK-MEL-2, melanoma
[9] = tested on: LOX IMVI; test: NCI60 five-dose screen; type: cell-based; details: Homo sapiens, melanoma
[10] = tested on: DU-145; test: NCI60 five-dose screen; type: cell-based; details: Homo sapiens, DU-145, prostate cancer
[11] = tested on: OVCAR-3; test: NCI60 five-dose screen; type: cell-based; details: Homo sapiens, OVCAR-3, ovarian cancer
[12] = tested on: SF-295; test: NCI60 five-dose screen; type: cell-based; details: Homo sapiens, SF-295, CNS cancer
[13] = tested on: MDA-MB-468; test: NCI60 five-dose screen; type: cell-based; details: Homo sapiens, MDA-MB-468, breast cancer
[14] = tested on: PC-3; test: NCI60 five-dose screen; type: cell-based; details: Homo sapiens, PC-3, prostate cancer
[15] = tested on: NCI-H23; test: NCI60 five-dose screen; type: cell-based; details: Homo sapiens, NCI-H23, NSC lung cancer
[16] = tested on: T47D breast cancer cell line; test: Cytotoxicity MTT assay, T47D; type: cell-based, human; details: Homo sapiens, T47D; MTT, 48 hours
Method: T47D (ATCC HTB-133) was purchased from Biomedia (Thailand) Co., LTD. L929 (ATCC CCL-1) was received as a gift from Prof. Tanapat Palaga, Department of Microbiology, Faculty of Science, Chulalongkorn University, Bangkok, Thailand. The cells were cultured in Dulbecco's Modified Eagle's Medium (DMEM; Gibco) supplemented with 10% fetal bovine serum (FBS; HyClone), 100 U mL^−1 penicillin and 100 µg mL^−1 streptomycin (Gibco) at 37 °C with 5% CO2.
The antiproliferative activity was determined by MTT assay. Briefly, the cells were plated into a 96-well microplate at the density of 10 000 cells per well. The cells were allowed to grow overnight before treated with the solutions of compounds in culture medium at the designated concentrations for 48 hours. The medium was then replaced with MTT solution (0.5 mg mL^−1 MTT in culture medium) and incubated for 3 hours. A 100 µL of DMSO was used to dissolve the produced formazan. Absorbance at 570 nm was then measured using a microplate reader (Varioskan™ LUX multimode microplate reader, Thermo Scientific™). Percent viability was calculated relative to the vehicle control (DMSO).

[17] = tested on: IGROV1; test: NCI60 five-dose screen; type: cell-based; details: Homo sapiens, IGROV-1; IGROV1, ovarian cancer
[18] = tested on: MOLT-4; test: NCI60 five-dose screen; type: cell-based; details: Homo sapiens, MOLT-4, leukemia
[19] = tested on: HCT-116; test: NCI60 five-dose screen; type: cell-based; details: Homo sapiens, HCT-116, colon cancer
[20] = tested on: HT29; test: NCI60 five-dose screen; type: cell-based; details: Homo sapiens, HT-29, HT29, colon cancer
[21] = tested on: RPMI-8226; test: NCI60 five-dose screen; type: cell-based; details: Homo sapiens, RPMI-8226, leukemia
[22] = tested on: HCC-2998; test: NCI60 five-dose screen; type: cell-based; details: Homo sapiens, HCC-2998, colon cancer
[23] = tested on: HOP-92; test: NCI60 five-dose screen; type: cell-based; details: Homo sapiens, HOP-92, NSC lung cancer
[24] = tested on: HS 578T; test: NCI60 five-dose screen; type: cell-based; details: Homo sapiens, breast cancer
[25] = tested on: BT-549; test: NCI60 five-dose screen; type: cell-based; details: Homo sapiens, BT-549, breast cancer
[26] = tested on: OVCAR-5; test: NCI60 five-dose screen; type: cell-based; details: Homo sapiens, OVCAR-5, ovarian cancer
[27] = tested on: HCT-15; test: NCI60 five-dose screen; type: cell-based; details: Homo sapiens, HCT-15, colon cancer
[28] = tested on: MDA-MB-231/ATCC; test: NCI60 five-dose screen; type: cell-based; details: Homo sapiens, breast cancer
[29] = tested on: OVCAR-8; test: NCI60 five-dose screen; type: cell-based; details: Homo sapiens, OVCAR-8, ovarian cancer
[30] = tested on: HOP-62; test: NCI60 five-dose screen; type: cell-based; details: Homo sapiens, HOP-62, NSC lung cancer
[31] = read-out: LC50 (the source's name)

Compound: CCOC(=O)c1c[nH]c(/C=N/NC(=O)c2[nH]c3ccc(Br)cc3c2-c2ccccc2)c1 [Derivative 3j, Ethyl (E)-5-((2-(5-bromo-3-phenyl-1H-indole-2-carbonyl)hydrazono)methyl)-1H-pyrrole-3-carboxylate]
- GI50 [1]: 1.5 µM
- CC50 [1, 31]: 9.88 µM
- GI50 [2]: 3.07 µM
- CC50 [2, 31]: 41.3 µM
- CC50 ([3]; MDA-MB-435, MDA-MB-435, melanoma, read-out: LC50 (the source's name)): 16.1 µM
- GI50 ([3]; MDA-MB-435, melanoma): 1.09 µM
- GI50 [4]: 2.39 µM
- CC50 [4, 31]: 50.3 µM
- GI50 [5]: 2.41 µM
- CC50 [5, 31]: 23.1 µM
- GI50 [6]: 2.53 µM
- CC50 [6, 31]: 51.8 µM
- GI50 [7]: 1.46 µM
- CC50 [7, 31]: 40.5 µM
- GI50 [8]: 2.8 µM
- CC50 [8, 31]: 32.8 µM
- GI50 [9]: 2.82 µM
- CC50 [9, 31]: 40.9 µM
- GI50 [10]: 3.48 µM
- CC50 [10, 31]: 35.6 µM
- GI50 [11]: 2.13 µM
- CC50 [11, 31]: 23.1 µM
- GI50 [12]: 2.34 µM
- CC50 [12, 31]: 24.4 µM
- GI50 [13]: 2.47 µM
- CC50 [13, 31]: 24.2 µM
- GI50 [14]: 3.76 µM
- CC50 [14, 31]: > 100 µM
- GI50 [15]: 3.06 µM
- CC50 [15, 31]: 46.4 µM
- IC50 [16]: 10.4 ± 2.9 µM
- GI50 [17]: 3.91 µM
- GI50 [18]: 2.1 µM
- CC50 [18, 31]: 53.4 µM
- GI50 [19]: 2.95 µM
- CC50 [19, 31]: 45.6 µM
- GI50 [20]: 2.59 µM
- CC50 [20, 31]: 27.5 µM
- GI50 [21]: 2.52 µM
- CC50 [21, 31]: > 100 µM
- GI50 [22]: 2.18 µM
- CC50 [22, 31]: 15.9 µM
- GI50 [23]: 4.56 µM
- CC50 [23, 31]: 58.6 µM
- GI50 [24]: 2.36 µM
- CC50 [24, 31]: > 100 µM
- GI50 [25]: 2.23 µM
- CC50 [25, 31]: 29.5 µM
- GI50 [26]: 3.87 µM
- CC50 [26, 31]: 42.9 µM
- GI50 [27]: 2.93 µM
- CC50 [27, 31]: 51.9 µM
- GI50 [28]: 2.85 µM
- CC50 [28, 31]: 36.8 µM
- GI50 [29]: 2.37 µM
- CC50 [29, 31]: 23.7 µM
- GI50 [30]: 2.78 µM
- CC50 [30, 31]: 54.4 µM
